In general, pIC50 refers to the IC50 on a negative log10 scale, so that one unit is a factor of ten. One may read the bioavailability as dose-corrected exposure relative to a reference, in per cent. The term clearance denotes a measure of how efficiently the substance is removed, as volume per time. Low readings indicate inefficient removal, high ones efficient removal. What is called half-life is how long it takes for the measured level to halve. High values mean slow loss, low ones fast loss.

pIC50: −log10 of the molar value. Entries after “also recorded” stand apart in the source; their conditions may differ. A value given as a limit tells only on which side of the number the result lay.

The record followed here is patent US7671061B2, “Methods and compositions for treating pain” (Hydra Biosciences, Inc., priority 2005, dated 2010).

The target in one data set is T1, hTRPV3 (Homo sapiens, UniProt Q8NET8).
T1 sequence (Q8NET8 1-790): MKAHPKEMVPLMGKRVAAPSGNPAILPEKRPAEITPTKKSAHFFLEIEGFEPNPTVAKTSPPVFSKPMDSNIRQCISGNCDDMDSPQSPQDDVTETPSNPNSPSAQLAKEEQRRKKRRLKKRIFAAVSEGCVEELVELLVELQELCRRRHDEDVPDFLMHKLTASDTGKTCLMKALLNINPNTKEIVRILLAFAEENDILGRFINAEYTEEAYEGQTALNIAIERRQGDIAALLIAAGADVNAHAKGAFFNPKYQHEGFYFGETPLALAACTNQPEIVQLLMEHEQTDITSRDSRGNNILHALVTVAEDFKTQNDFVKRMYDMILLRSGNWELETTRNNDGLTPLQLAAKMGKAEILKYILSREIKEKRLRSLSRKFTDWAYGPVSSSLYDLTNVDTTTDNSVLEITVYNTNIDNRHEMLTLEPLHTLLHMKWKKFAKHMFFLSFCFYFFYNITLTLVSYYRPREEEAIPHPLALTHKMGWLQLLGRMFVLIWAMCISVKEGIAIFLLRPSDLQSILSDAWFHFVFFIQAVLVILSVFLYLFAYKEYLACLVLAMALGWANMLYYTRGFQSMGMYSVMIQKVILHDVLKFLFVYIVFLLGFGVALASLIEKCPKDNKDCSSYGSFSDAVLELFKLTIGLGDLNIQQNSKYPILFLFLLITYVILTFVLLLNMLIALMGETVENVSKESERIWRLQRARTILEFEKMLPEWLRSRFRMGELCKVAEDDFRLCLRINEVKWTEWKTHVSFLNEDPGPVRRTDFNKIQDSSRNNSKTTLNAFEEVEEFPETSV
Description: hTRPV3 patch clamp selectivity. In kind it is cell-based. The settings on record: Table 2. In general terms: In patch-clamp work, channel activity is measured electrically.

The target in the next data set is hTRPV4 (Homo sapiens, UniProt Q9HBA0). Nature of the data set: hTRPV4 patch clamp selectivity. In kind it is cell-based. The settings on record: Table 2.
Sequence of hTRPV4 (Q9HBA0 whole entry): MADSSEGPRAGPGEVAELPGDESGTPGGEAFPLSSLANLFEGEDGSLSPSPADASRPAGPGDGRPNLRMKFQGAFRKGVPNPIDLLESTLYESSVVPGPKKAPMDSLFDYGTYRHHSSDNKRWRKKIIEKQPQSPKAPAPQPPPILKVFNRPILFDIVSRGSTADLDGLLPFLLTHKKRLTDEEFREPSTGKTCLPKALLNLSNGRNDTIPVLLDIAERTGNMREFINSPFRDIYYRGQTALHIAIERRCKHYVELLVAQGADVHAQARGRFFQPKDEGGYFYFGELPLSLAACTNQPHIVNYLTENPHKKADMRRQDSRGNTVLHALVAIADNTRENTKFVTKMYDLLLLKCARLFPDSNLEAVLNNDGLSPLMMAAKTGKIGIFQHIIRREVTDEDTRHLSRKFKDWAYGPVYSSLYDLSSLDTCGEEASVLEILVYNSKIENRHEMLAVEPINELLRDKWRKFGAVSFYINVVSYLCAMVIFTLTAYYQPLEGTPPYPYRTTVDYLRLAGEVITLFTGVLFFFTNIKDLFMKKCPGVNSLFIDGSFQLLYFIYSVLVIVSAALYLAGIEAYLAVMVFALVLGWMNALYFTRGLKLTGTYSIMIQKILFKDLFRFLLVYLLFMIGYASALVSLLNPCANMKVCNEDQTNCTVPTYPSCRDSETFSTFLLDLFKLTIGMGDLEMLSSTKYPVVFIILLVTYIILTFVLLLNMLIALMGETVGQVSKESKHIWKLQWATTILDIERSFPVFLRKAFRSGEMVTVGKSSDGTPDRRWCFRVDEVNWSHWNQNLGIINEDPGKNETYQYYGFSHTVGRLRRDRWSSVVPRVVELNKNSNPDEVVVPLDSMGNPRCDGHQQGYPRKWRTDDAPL
A short description of another data set: Stability in rat plasma. In kind it is in vitro ADME. The following applies: 37° C. The method, then:
Compound 200 was stable in rat plasma for ≧1 hour at 37° C.

Data set [1] in a line: Plasma levels / pharmacokinetics in male Sprague-Dawley rat. The class given is in vivo. The method, then: Compound 200 plasma levels were determined via HPLC/MS/MS following a single intravenous bolus dose of 0.9 mg/kg, an intraperitoneal dose of 12 mg/kg (suspension), and an oral dose of 12 mg/kg (suspension) in the male Sprague-Dawley rat. […] For intraperitoneal administration, Compound 200 was formulated as a uniform suspension in CMC (carboxymethylcellulose) at a target concentration of 1 mg/mL and administered at a dose volume of 10 mL/kg. For oral administration, Compound 200 was formulated as a uniform suspension in CMC (carboxymethylcellulose), at a target concentration of 1 mg/mL, administered by gavage, at a dose volume of 10 mL/kg, to the conscious, fasted, male Sprague-Dawley rat.

Data set [2] relates to bradykinin induced tactile allodynia. Description: Bradykinin induced pain model. In kind it is in vivo, rat. The method, then: As outlined above, the bradykinin model involves an intraplantar injection of a 5 ng/uL solution of bradykinin. Injection of the bradykinin solution typically causes a rapid sensitization. Sensitization is measured by assessing the thermal escape latency of the injected paw in response to a mild thermal stimulus delivered by a modified Hargreaves apparatus. FIGS. 1a and 1b summarize data obtained following testing of Compound 200 in the bradykinin model. This study examined the antinociceptive effects of 200 mg/kg, 50 mg/kg, and 12.5 mg/kg intraperitoneal Compound 200 on bradykinin induced tactile allodynia. […] Inhibitor or vehicle were injected intraperitoneally (IP). […] Throughout the study, general behavioral assessments were made during each period of observation. Observations included tactile allodynia (vocalization/agitation induced by light touch applied to the body surface), spontaneous vocalization, biting and chewing of body surface, loss of hind limb placing and stepping reflex, loss of hind limb weight bearing, and loss of righting reflex. Additionally, mechanical allodynia was assessed and measured. The results provided in FIGS. 1a and 1b are based on assessment of mechanical allodynia.

Data set [3] deals with carrageenan-induced inflammation. Description: Carrageenan model of acute inflammatory pain (paw volume). In kind it is in vivo, rat. The following applies: IP, carrageenan injected paw. How it is done:
In this study, the drug administered was either a TRPA1 inhibitor or the non-steroidal anti-inflammatory diclofenac. Following administration of both carrageenan and drug or vehicle control, paw volume was measured and used to assess decreased inflammation.

The test system of data set [4] is BOO model of incontinence. The settings on record: BOO rats, intravesical infusion.
Description: Efficacy of the varying doses of TRPA1 inhibitory compound were compared to controls administered excipients alone (sham control). Efficacy was also compared to rats administered a positive control, such as atropine.
Female Sprague Dawley rats were used in these studies. Rats underwent surgical partial bladder outlet obstruction (BOO) or sham surgery. Five weeks after BOO (or sham) surgery, an intravesical catheter was surgically implanted into the dome of the bladder for conducting urodynamic studies. One week after catheter implantation (6 weeks after BOO or sham), urodynamic studies began. […] An analytic balance beneath the wire-bottom animal cage measured the amount of urine voided during continuous cystometry. […]
For each CMG cycle, the following parameters were assessed: infused volume (the amount of saline or drug infused for each CMG cycle); void volume (the amount of urine voided by the animal for each CMG cycle); minimum pressure (minimum pressure during filling); threshold pressure (pressure prior to micturition when bladder pressure begins to rise steeply); average pressure (average pressure during filling and before threshold); maximum pressure; intermicturition interval (time between two subsequent voiding events); urine flow rate index.
In a further data set the target is hERG (Homo sapiens, UniProt Q12809). Nature of the data set: in vitro. The following applies: selective for TRPA1 over hERG.
Sequence of hERG (Q12809 whole entry): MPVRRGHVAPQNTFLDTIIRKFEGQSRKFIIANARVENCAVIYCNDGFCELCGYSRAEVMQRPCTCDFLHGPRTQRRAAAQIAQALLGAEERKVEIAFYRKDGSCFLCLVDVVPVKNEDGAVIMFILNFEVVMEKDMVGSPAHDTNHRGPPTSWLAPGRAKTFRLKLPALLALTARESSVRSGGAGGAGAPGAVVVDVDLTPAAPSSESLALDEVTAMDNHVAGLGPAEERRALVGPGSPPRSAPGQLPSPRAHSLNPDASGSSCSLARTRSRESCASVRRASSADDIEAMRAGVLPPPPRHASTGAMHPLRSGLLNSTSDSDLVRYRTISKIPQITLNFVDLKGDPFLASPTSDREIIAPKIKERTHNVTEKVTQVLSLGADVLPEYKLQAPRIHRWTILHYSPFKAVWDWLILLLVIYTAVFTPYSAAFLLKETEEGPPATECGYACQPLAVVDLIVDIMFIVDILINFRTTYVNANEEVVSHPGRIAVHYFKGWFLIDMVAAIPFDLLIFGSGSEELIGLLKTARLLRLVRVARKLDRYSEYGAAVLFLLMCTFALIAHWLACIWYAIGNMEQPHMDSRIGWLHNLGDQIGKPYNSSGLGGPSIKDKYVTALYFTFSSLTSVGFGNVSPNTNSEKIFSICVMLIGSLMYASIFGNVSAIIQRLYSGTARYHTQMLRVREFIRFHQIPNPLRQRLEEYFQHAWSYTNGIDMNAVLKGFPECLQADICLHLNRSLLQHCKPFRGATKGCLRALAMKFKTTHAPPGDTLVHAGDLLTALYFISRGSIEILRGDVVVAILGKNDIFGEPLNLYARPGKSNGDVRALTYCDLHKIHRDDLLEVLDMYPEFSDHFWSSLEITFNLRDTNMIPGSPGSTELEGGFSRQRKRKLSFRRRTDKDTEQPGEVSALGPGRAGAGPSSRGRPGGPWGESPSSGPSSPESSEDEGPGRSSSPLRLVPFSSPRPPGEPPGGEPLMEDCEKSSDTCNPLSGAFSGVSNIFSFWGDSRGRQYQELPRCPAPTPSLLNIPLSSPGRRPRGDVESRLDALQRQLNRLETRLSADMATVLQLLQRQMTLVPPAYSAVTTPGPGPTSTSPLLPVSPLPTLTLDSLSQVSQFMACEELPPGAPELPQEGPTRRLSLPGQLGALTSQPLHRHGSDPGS
Setting [5] is: plasma, male Sprague-Dawley rat, intravenous bolus 0.9 mg/kg.

For the molecule `CC(C)c1ccc(NC(=O)Cn2cnc3c2c(=O)n(C)c(=O)n3C)cc1` [Compound 200, 2-(1,3-dimethyl-2,6-dioxo-1,2,3,6-tetrahydropurin-7-yl)-N-(4-isopropylphenyl)acetamide], at hTRPV3, the “selective for TRPA1 over TRPV3” value was no less than 5 fold. Also, at hTRPV3 (read-out: hTRPV3 P1 inward IC50), the pIC50 is less than 5.00. In addition, at hTRPV4, the pIC50 is less than 5.00 and the “selective for TRPA1 over TRPV4” value was no less than 5 fold. Besides, in “Stability in rat plasma”, the “stable in rat plasma” value was no less than 1 h. For the same molecule, in data set [1] (male, Sprague-Dawley, plasma, fasted rat, oral suspension 12 mg/kg), the bioavailability is roughly 8%. Besides, the concentration at 45 min in data set [1] (male, Sprague-Dawley, plasma, rat, oral 12 mg/kg, 45 min) was roughly 355 ng/mL. In data set [1] (setting [5]), the clearance worked out at 27 mL/min/kg and the half-life turned out to be 32 min. In addition, the Vd in data set [1] (plasma, male Sprague-Dawley rat, intravenous bolus 0.9 mg/kg, read-out: volume of distribution) was 1.28 L/kg. In data set [1] (rat, intraperitoneal 12 mg/kg, 15-60 min), this molecule had a plasma levels of roughly 355 ng/mL. The “effect on mechanical threshold / allodynia after bradykinin injection” value in data set [2] (IP 12.5, 50, 200 mg/kg, 30 min before bradykinin) was “dose dependent effect; also recorded: dose dependent decrease of allodynia”. In data set [2] (IP doses up to 200 mg/kg), the “changes in behavioral parameters” value is given as “no changes in behavioral parameters were noted” and the “duration of effect on mechanical threshold” value is reported as “approximately 60 minutes”. In addition, the “rats with mild sedation” value in data set [2] (highest dose (200 mg/kg IP)) is given as 3 of 8. In addition, the “paw volume (inflammation)” value in data set [3] is given as “decreased”. In data set [4], the maximum bladder pressure entry was “decreased” and the threshold bladder pressure entry is reported as “decreased”. Also, the selectivity ratio at hERG is no less than 20.
